Common to all, as to assay: biochemical
Design in all cases: Eurofins DiscoverX kinase panel, competitive binding assay at 1 uM, percent of DMSO control
Common to all, as to details: competitive binding, percent of DMSO control

One experiment has as its target DAPK1 (Homo sapiens, UniProt P53355). The gist of the method: (§1)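 Competitive binding assay across a 96-kinase panel with KIF18A compounds at 1 µM; values given as percentage of control (POC), single experiment.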
For the next experiment, the target named is T1, GRK1 (Homo sapiens, UniProt Q15835).
T1 sequence (Q15835 1-563): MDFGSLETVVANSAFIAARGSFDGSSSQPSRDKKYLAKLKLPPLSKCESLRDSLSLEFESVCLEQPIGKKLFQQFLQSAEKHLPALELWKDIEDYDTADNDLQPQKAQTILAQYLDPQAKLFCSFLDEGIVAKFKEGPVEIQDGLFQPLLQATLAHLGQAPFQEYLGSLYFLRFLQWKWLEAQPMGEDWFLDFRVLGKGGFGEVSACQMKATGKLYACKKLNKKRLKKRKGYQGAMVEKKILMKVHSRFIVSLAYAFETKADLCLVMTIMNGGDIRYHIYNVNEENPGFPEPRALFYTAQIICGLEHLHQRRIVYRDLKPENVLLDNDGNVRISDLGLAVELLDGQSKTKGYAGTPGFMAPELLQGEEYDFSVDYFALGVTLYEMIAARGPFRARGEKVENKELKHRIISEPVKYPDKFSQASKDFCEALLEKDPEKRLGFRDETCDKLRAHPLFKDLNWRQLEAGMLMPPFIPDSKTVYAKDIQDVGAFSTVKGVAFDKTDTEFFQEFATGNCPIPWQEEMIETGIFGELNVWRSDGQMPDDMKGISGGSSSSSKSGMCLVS
The method, boiled down: as §1

Another experiment concerns the target T2, IRAK 4 (Homo sapiens, UniProt Q9NWZ3).
T2 construct: gene IRAK4
T2 sequence (Q9NWZ3 1-460): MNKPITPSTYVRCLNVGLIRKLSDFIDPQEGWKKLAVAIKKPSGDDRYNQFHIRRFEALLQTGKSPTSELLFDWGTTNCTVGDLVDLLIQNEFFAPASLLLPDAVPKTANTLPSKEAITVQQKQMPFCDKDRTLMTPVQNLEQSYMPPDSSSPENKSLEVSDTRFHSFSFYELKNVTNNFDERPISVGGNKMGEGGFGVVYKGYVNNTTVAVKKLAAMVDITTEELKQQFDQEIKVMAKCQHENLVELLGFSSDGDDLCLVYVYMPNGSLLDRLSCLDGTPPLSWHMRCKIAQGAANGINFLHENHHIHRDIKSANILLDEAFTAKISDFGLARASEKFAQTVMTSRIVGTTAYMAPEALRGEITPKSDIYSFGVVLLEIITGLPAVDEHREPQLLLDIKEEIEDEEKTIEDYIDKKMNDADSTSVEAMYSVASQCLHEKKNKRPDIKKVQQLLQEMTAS
The gist of the method: as §1

The mark [1] stands for this setting: read-out: Kinome Profiling performed by Eurofins DiscoverX / AM-0277, 1.0 µM / POC.
Where [2] appears, read: read-out: Kinome Profiling performed by Eurofins DiscoverX / AM-1882, 1.0 µM / POC.
Where [3] appears, read: read-out: Kinome Profiling performed by Eurofins DiscoverX / AM-5308, 1.0 µM / POC.

The structures appear in SMILES notation. Read-outs that look alike come from different tables or passages of the source.

Sequence of DAPK1 (P53355 whole entry): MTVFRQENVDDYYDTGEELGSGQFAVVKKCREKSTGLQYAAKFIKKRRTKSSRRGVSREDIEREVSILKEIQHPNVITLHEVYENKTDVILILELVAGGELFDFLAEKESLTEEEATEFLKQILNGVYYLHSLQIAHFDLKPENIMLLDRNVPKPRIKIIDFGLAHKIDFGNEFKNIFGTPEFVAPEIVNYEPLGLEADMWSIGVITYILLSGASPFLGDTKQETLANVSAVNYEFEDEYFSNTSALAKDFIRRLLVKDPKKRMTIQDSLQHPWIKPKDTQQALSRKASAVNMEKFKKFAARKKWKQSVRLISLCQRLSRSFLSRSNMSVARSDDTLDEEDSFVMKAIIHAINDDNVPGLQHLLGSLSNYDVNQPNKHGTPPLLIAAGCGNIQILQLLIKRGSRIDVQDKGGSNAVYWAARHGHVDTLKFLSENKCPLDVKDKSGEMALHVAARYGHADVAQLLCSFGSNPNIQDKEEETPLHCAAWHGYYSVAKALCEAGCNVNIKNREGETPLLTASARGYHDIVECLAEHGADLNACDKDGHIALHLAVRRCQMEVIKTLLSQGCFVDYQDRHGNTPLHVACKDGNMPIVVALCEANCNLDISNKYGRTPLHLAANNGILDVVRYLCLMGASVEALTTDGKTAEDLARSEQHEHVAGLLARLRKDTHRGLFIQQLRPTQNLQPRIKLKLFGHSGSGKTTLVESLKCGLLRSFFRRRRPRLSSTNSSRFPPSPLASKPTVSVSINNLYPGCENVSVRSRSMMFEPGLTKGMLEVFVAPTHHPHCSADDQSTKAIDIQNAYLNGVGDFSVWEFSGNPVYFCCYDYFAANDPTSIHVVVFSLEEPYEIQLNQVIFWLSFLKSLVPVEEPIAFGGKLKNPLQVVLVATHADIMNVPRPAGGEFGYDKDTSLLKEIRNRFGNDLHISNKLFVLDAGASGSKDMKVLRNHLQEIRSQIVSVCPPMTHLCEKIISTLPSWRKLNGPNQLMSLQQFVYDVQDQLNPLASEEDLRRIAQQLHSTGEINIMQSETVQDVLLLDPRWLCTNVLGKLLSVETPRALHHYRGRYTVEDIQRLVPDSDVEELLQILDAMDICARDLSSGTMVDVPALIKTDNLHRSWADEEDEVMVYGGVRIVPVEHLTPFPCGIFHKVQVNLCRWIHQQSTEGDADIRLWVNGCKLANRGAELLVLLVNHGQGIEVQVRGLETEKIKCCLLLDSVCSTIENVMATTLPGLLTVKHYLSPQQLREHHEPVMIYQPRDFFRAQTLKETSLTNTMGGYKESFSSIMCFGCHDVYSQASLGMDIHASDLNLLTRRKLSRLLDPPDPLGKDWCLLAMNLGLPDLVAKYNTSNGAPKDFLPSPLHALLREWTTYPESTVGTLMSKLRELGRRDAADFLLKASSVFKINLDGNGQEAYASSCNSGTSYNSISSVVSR

In the case of `CC(C)(CO)Nc1ccc(C(=O)Nc2cccc(S(=O)(=O)C3CCCC3)c2)c(N2CCC3(CC2)CC3)n1` [AM-0277], the remaining activity at 1 µM was 100% at DAPK1 (setting [1]), 81% on GRK1 (setting [1]) and 100% on IRAK 4 (setting [1]).

With `CC(C)(C)NS(=O)(=O)c1cccc(NC(=O)c2ccc(S(=O)(=O)NC(C)(C)C)cc2N2CCC3(CC2)CC3)c1` [AM-1882], the remaining activity at 1 µM on DAPK1 (setting [2]) is 87%; at GRK1 (setting [2]), 98.5%; at IRAK 4 (setting [2]), 80%.

`C[C@@H]1CN(c2cccc(NC(=O)c3ccc(NS(=O)(=O)CCO)cc3N3CCC4(CC3)CC4)n2)CCO1` [AM-5308]: the remaining activity at 1 µM at DAPK1 (setting [3]) worked out at 89.5%; on GRK1 (setting [3]), 91%; on IRAK 4 (setting [3]), 95.5%.

These data come from article PMC10824666 (Nature Cancer, 2023).
